The results in this text go back to ChEMBL document CHEMBL1152256, “Synthesis of Arabino glycosyl triazoles as potential inhibitors of mycobacterial cell wall biosynthesis” (2008).

The source made the active and inactive calls. No cut-off for these calls is given here.

The subject of the test is Escherichia coli. The test is described as follows: Antibacterial activity against Escherichia coli JM109 at 1 mg/mL. It is filed as functional, organism-based.
Consider `CCCCCCCCCCc1cn([C@@H]2O[C@H](CO)[C@@H](O)[C@@H]2O)nn1`, for which the result was inactive. To `CCCCCCCCCCCCCCOCc1cn([C@@H]2O[C@H](CO)[C@@H](O)[C@@H]2O)nn1` belongs “inactive”; to `OC[C@H]1O[C@@H](n2cc(-c3ccccc3)nn2)[C@@H](O)[C@@H]1O`, “inactive”; to `CCCCCCCCc1cn([C@@H]2O[C@H](CO)[C@@H](O)[C@@H]2O)nn1`, “inactive”. Take `CCCCCCc1cn([C@@H]2O[C@H](CO)[C@@H](O)[C@@H]2O)nn1`: the result was inactive.

In the case of `CC(C)=CCC/C(C)=C/CC/C(C)=C/COCc1cn([C@@H]2O[C@H](CO)[C@@H](O)[C@@H]2O)nn1`, the result was inactive.
